EP4640678A1, “NOVEL OXO-PYRIDINE COMPOUND, PREPARATION METHOD THEREFOR, AND USE THEREOF” (Chengdu Shibeikang Biomedical Technology Co., Ltd., priority 2022, dated 2024)
pIC50: −log10 of the molar value.

How the values were obtained:
[1] = Effect of continuous in-vivo administration on general condition and food intake of rats; conditions: 500 mg/kg PO once a day for 14 days, within 24 hours after the last administration; for food intake compared with the blank group: SD rats
Text: Each group had 10 rats, equally distributed by gender. The rats received drug administrations via oral gavage once a day for 14 consecutive days, following the administration regimen outlined in the table below. The blank group was given an equal volume of a vehicle. […] Table 4 Continuous administration regimen

human plasma = experiment: determination of in-vitro anticoagulant effect in human plasma (APTT); format: biochemical; conditions: for APTT prolongation rate (%): healthy human plasma, 37°C for 3 min; for EC150: estimated from the APTT test results in human plasma
Protocol: After centrifugation, the plasma sample was pipetted and frozen (-80°C) for later use.
A proper amount of a compound was weighed and prepared into a 10-100 mM stock solution using 100% of DMSO (the specific concentration of the stock solution was determined based on the properties of the compound); and then working solutions with various concentrations (specifically: 1 µM, 3 µM and 10 µM, respectively) were prepared from the stock solution using the healthy human plasma as a solution and thoroughly mixed. After incubation at 37°C for 3 min, the sample was placed on an instrument (model: CS-2000I) to determine APTT.
GraphPad Prism software was used for analysis to calculate the APTT prolongation rate at each concentration.

[2] = Study of pharmacokinetics in rats; format: in vivo; conditions: rat, po; male SD rats, intragastrical gavage, 30 mg/kg, plasma
Protocol: Each group was administered via intragastrical gavage at a dose of 30 mg/kg.
About 0.5 mL of blood was collected, placed in an EDTA-K2 tube, centrifuged to separate plasma, and stored at -80°C. The drug plasma concentration was measured using a liquid chromatography-tandem mass spectrometry analysis system (LC-MS/MS), and pharmacokinetic parameters, such as AUC0-t, Cmax, Tmax and t1/2, were calculated based on the drug plasma concentration data using DAS 2.0 software.

human FXla = human FXla (Homo sapiens, UniProt P03951); experiment: Activity assay of coagulation factor FXla inhibitor (S-2366 substrate, OD405nm); format: biochemical; conditions: 5 concentrations 200 nM to 0.32 nM, 0.8 nM (2X) human FXla working solution
Sequence of human FXla (P03951 388-625 limits assumed): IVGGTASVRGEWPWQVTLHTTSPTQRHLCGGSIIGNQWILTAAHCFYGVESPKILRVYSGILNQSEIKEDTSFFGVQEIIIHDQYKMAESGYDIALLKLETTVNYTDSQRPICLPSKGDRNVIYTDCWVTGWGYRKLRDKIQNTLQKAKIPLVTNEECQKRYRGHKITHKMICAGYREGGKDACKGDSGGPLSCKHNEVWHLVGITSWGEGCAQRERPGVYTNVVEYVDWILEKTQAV
Sequence of human FXla (P03951 19-387 partner limits assumed): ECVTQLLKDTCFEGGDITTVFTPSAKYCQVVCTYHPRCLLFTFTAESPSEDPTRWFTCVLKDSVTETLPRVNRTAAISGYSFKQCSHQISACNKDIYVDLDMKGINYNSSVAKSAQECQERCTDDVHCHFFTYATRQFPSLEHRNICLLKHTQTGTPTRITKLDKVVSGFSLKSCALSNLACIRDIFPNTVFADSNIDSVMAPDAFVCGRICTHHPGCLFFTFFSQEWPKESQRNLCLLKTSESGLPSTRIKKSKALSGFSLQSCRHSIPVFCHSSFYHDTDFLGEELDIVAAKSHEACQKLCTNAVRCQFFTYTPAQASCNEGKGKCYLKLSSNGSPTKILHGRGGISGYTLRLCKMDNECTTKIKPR
Text: X: log value of compound concentration; Y: inhibition rate (%).

Compound | Food intake (g, mean±SD) [1] [g] | AUC(0-t) [2] [µg·h/mL] | Cmax [2] [ng/mL] | Tmax [2] [h] | half-life [2] [h] | pIC50 (human FXla) | food intake compared with the blank group [1] | APTT prolongation rate (%) (human plasma; 3 µM) | APTT prolongation rate (%) (human plasma; 10 µM) | EC150 (human plasma) | APTT prolongation rate (%) (human plasma; 1 µM)
CC[C@@H](C(=O)Nc1ccc(C(=O)O)c(Cl)c1)n1cc(OC)c(-c2cc(Cl)ccc2-n2cc(Cl)nn2)cc1=O [Compound 9, (S)-2-chloro-4-(2-(4-(5-chloro-2-(4-chloro-1H-1,2,3-triazol-1-yl)phenyl)-5-methoxy-2-oxopyridin-1(2H)-yl)butanamido)benzoic acid] | – | – | – | – | – | 8.20 | – | 69.5 | 103.8 | – | 44.3
CC[C@@H](C(=O)Nc1ccc(C(N)=O)cc1F)n1cc(OC)c(-c2cc(Cl)ccc2-n2cc(C(F)(F)F)nn2)cc1=O [Compound 13, (S)-4-(2-(4-(5-chloro-2-(4-(trifluoromethyl)-1H-1,2,3-triazol-1-yl)phenyl)-5-methoxy-2-oxopyridin-1(2H)-yl)butanamido)-3-fluorobenzamide] | – | – | – | – | – | 7.59 | – | 80.2 | 175.9 | less than 1 µM | –
[2H]C([2H])([2H])Oc1cn([C@@H](CC)C(=O)Nc2ccc(C(N)=O)c(Cl)c2)c(=O)cc1-c1cc(Cl)ccc1-n1cc(C(F)(F)F)nn1 [Compound 22, (S)-2-chloro-4-(2-(4-(5-chloro-2-(4-(trifluoromethyl)-1H-1,2,3-triazol-1-yl)phenyl)-5-(methoxy-d3)-2-oxopyridin-1(2H)-yl)butanamido)benzamide] | – | – | – | – | – | 8.37 | – | 62.0 | 105.9 | – | 35.6
[2H]C([2H])([2H])Oc1cn([C@@H](CC)C(=O)Nc2ccc(C(=O)NC)c(F)c2)c(=O)cc1-c1cc(Cl)ccc1-n1cc(C(F)(F)F)nn1 [Compound 25, (S)-4-(2-(4-(5-chloro-2-(4-(trifluoromethyl)-1H-1,2,3-triazol-1-yl)phenyl)-5-(methoxy-d3)-2-oxopyridin-1(2H)-yl)butanamido)-2-fluoro-N-methylbenzamide] | 27.00 ± 1.42 | 159 | 26500 | 2.3 | 1.9 | 8.73 | essentially the same food intake as the blank group | 76.7 | 158.5 | less than 1 µM | –
[2H]C([2H])([2H])NC(=O)c1ccc(NC(=O)[C@H](CC)n2cc(OC)c(-c3cc(Cl)ccc3-n3cc(C(F)(F)F)nn3)cc2=O)cc1F [Compound 26, (S)-4-(2-(4-(5-chloro-2-(4-(trifluoromethyl)-1H-1,2,3-triazol-1-yl)phenyl)-5-(methoxy)-2-oxopyridin-1(2H)-yl)butanamido)-2-fluoro-N-(methyl-d3)benzamide] | 26.49 ± 1.21 | 129 | 21000 | 2.7 | 3.33 | 8.94 | essentially the same food intake as the blank group | 78.3 | 159.5 | less than 1 µM | –
[2H]C([2H])([2H])NC(=O)c1ccc(NC(=O)[C@H](CC)n2cc(OC([2H])([2H])[2H])c(-c3cc(Cl)ccc3-n3cc(C(F)(F)F)nn3)cc2=O)cc1F [Compound 27, (S)-4-(2-(4-(5-chloro-2-(4-(trifluoromethyl)-1H-1,2,3-triazol-1-yl)phenyl)-5-(methoxy-d3)-2-oxopyridin-1(2H)-yl)butanamido)-2-fluoro-N-(methyl-d3)benzamide] | 27.08 ± 1.19 | 291 | 27200 | 4.43 | 4.01 | 8.53 | essentially the same food intake as the blank group | 79.7 | 142.5 | less than 1 µM | –

Now from value to molecule, other results behind:

Food intake (g, mean±SD) [1] [g] | AUC(0-t) [2] [µg·h/mL] | Cmax [2] [ng/mL] | Tmax [2] [h] | half-life [2] [h] | pIC50 (human FXla) | Compound | food intake compared with the blank group [1] | APTT prolongation rate (%) (human plasma; 3 µM) | APTT prolongation rate (%) (human plasma; 10 µM) | EC150 (human plasma) | APTT prolongation rate (%) (human plasma; 1 µM)
27.22 ± 1.33 | 85.9 | 6740 | 3.94 | 7.75 | 9.04 | CC[C@@H](C(=O)Nc1ccc(C(=O)O)c(Cl)c1)n1cc(OC)c(-c2cc(Cl)ccc2-n2cc(C(F)(F)F)nn2)cc1=O [Compound 2, (S)-2-chloro-4-(2-(4-(5-chloro-2-(4-(trifluoromethyl)-1H-1,2,3-triazol-1-yl)phenyl)-5-methoxy-2-oxopyridin-1(2H)-yl)butanamido)benzoic acid] | essentially the same food intake as the blank group | 88.9 | 124.8 | less than 1 µM | –
– | – | – | – | – | 8.25 | CC[C@@H](C(=O)Nc1ccc(C(N)=O)c(OC)c1)n1cc(OC)c(-c2cc(Cl)ccc2-n2cc(C(F)(F)F)nn2)cc1=O [Compound 5, (S)-4-(2-(4-(5-chloro-2-(4-(trifluoromethyl)-1H-1,2,3-triazol-1-yl)phenyl)-5-methoxy-2-oxopyridin-1(2H)-yl)butanamido)-2-methoxybenzamide] | – | 84.6 | 125.8 | less than 1 µM | –
– | 89.8 | 6440 | 4.1 | 7.08 | 9.02 | CC[C@@H](C(=O)Nc1ccc(C(=O)O)c(OC)c1)n1cc(OC)c(-c2cc(Cl)ccc2-n2cc(C(F)(F)F)nn2)cc1=O [Compound 6, (S)-4-(2-(4-(5-chloro-2-(4-(trifluoromethyl)-1H-1,2,3-triazol-1-yl)phenyl)-5-methoxy-2-oxopyridin-1(2H)-yl)butanamido)-2-methoxybenzoic acid] | – | 78.0 | 135.1 | less than 1 µM | –
– | – | – | – | – | 8.78 | CC[C@@H](C(=O)Nc1ccc(C(=O)NC)c(F)c1)n1cc(OC)c(-c2cc(Cl)ccc2-n2cc(C(F)(F)F)nn2)cc1=O [Compound 17, (S)-4-(2-(4-(5-chloro-2-(4-(trifluoromethyl)-1H-1,2,3-triazol-1-yl)phenyl)-5-methoxy-2-oxopyridin-1(2H)-yl)butanamido)-2-fluoro-N-methylbenzamide] | – | 82.6 | 145.3 | less than 1 µM | –
– | – | – | – | – | 8.04 | CC[C@@H](C(=O)Nc1ccc(C(=O)NC)c(OC)c1)n1cc(OC)c(-c2cc(Cl)ccc2-n2cc(C(F)(F)F)nn2)cc1=O [Compound 18, (S)-4-(2-(4-(5-chloro-2-(4-(trifluoromethyl)-1H-1,2,3-triazol-1-yl)phenyl)-5-methoxy-2-oxopyridin-1(2H)-yl)butanamido)-2-methoxy-N-methylbenzamide] | – | 46.1 | 90.6 | – | 33.2
